Tests used:
Assay type in all cases: functional
Malme-3M = assay: Cytotoxicity against human MALME-3M cells assessed as cell growth at 10^-8 M after 48 hrs by SRB assay; settings: read-out: Activity
[1] = Cytotoxicity against human MOLT4 cells assessed as cell growth at 10^-4 M after 48 hrs by SRB assay; settings: MOLT-4, 48 h, read-out: Activity
[2] = Cytotoxicity against human SKOV3 cells assessed as cell growth at 10^-7 M after 48 hrs by SRB assay; settings: SK-OV-3, 48 h, read-out: Activity
NCI-H226 = assay: Cytotoxicity against human NCI-H226 cells assessed as cell growth at 10^-7 M after 48 hrs by SRB assay; settings: NCI-H226, 48 h, read-out: Activity
[3] = Cytotoxicity against human COLO205 cells assessed as cell growth at 10^-7 M after 48 hrs by SRB assay; settings: COLO 205, 48 h, read-out: Activity
[4] = Cytotoxicity against human SW620 cells assessed as cell growth at 10^-5 M after 48 hrs by SRB assay; settings: SW-620, 48 h, read-out: Activity
[5] = Cytotoxicity against human OVCAR3 cells assessed as cell growth at 10^-6 M after 48 hrs by SRB assay; settings: OVCAR-3, 48 h, read-out: Activity
[6] = Cytotoxicity against human PC3 cells assessed as cell growth at 10^-5 M after 48 hrs by SRB assay; settings: PC-3, 48 h, read-out: Activity
[7] = Cytotoxicity against human OVCAR8 cells assessed as cell growth at 10^-4 M after 48 hrs by SRB assay; settings: OVCAR-8, 48 h, read-out: Activity
[8] = Cytotoxicity against human UO31 cells assessed as cell growth at 10^-4 M after 48 hrs by SRB assay; settings: UO-31, 48 h, read-out: Activity
[9] = Cytotoxicity against human UACC62 cells assessed as cell growth at 10^-4 M after 48 hrs by SRB assay; settings: UACC-62, 48 h, read-out: Activity
[10] = Cytotoxicity against human SF295 cells assessed as cell growth at 10^-7 M after 48 hrs by SRB assay; settings: SF-295, 48 h, read-out: Activity
[11] = Cytotoxicity against human HCT15 cells assessed as cell growth at 10^-8 M after 48 hrs by SRB assay; settings: HCT-15, 48 h, read-out: Activity
[12] = Cytotoxicity against human SF539 cells assessed as cell growth at 10^-4 M after 48 hrs by SRB assay; settings: SF-539, 48 h, read-out: Activity
[13] = Cytotoxicity against human HL-60(TB) cells assessed as cell growth at 10^-6 M after 48 hrs by SRB assay; settings: HL-60, 48 h, read-out: Activity
[14] = Cytotoxicity against human OVCAR3 cells assessed as cell growth at 10^-8 M after 48 hrs by SRB assay; settings: OVCAR-3, 48 h, read-out: Activity
NCI-H322M [15] = assay: Cytotoxicity against human NCI-H322M cells assessed as cell growth at 10^-5 M after 48 hrs by SRB assay; settings: read-out: Activity
T47D = assay: Cytotoxicity against human T47D cells assessed as cell growth at 10^-5 M after 48 hrs by SRB assay; settings: read-out: Activity
[16] = Cytotoxicity against human SKOV3 cells assessed as cell growth at 10^-4 M after 48 hrs by SRB assay; settings: SK-OV-3, 48 h, read-out: Activity
[17] = Cytotoxicity against human RXF393 cells assessed as cell growth at 5 uM after 48 hrs by SRB assay; settings: RXF 393, 48 h, read-out: Activity
[18] = Cytotoxicity against human RPMI8226 cells assessed as cell growth at 5 uM after 48 hrs by SRB assay; settings: RPMI-8226, 48 h, read-out: Activity
[19] = Cytotoxicity against human TK10 cells assessed as cell growth at 5 nM after 48 hrs by SRB assay; settings: TK-10, 48 h, read-out: Activity
[20] = Cytotoxicity against human UACC257 cells assessed as cell growth at 5 nM after 48 hrs by SRB assay; settings: UACC-257, 48 h, read-out: Activity
[21] = Cytotoxicity against human HCT15 cells assessed as cell growth at 0.5 uM after 48 hrs by SRB assay; settings: HCT-15, 48 h, read-out: Activity
[22] = Cytotoxicity against human HCT15 cells assessed as cell growth at 50 uM after 48 hrs by SRB assay; settings: HCT-15, 48 h, read-out: Activity
[23] = Cytotoxicity against human HCC2998 cells assessed as cell growth at 0.5 uM after 48 hrs by SRB assay; settings: HCC 2998, 48 h, read-out: Activity
[24] = Cytotoxicity against human DU145 cells assessed as cell growth at 5 nM after 48 hrs by SRB assay; settings: DU-145, 48 h, read-out: Activity
K562 = assay: Cytotoxicity against human K562 cells assessed as cell growth at 50 nM after 48 hrs by SRB assay; settings: K562, 48 h, read-out: Activity
[25] = Cytotoxicity against human SKOV3 cells assessed as cell growth at 0.5 uM after 48 hrs by SRB assay; settings: SK-OV-3, 48 h, read-out: Activity
786-0 = assay: Cytotoxicity against human 786-0 cells assessed as cell growth at 0.5 uM after 48 hrs by SRB assay; settings: 786-0, 48 h, read-out: Activity
NCI-H322M [26] = assay: Cytotoxicity against human NCI-H322M cells assessed as cell growth at 0.5 uM after 48 hrs by SRB assay; settings: read-out: Activity
HT-29 [27] = assay: Cytotoxicity against human HT-29 cells assessed as cell growth at 5 uM after 48 hrs by SRB assay; settings: HT-29, 48 h, read-out: Activity
[28] = Cytotoxicity against human TK10 cells assessed as cell growth at 5 uM after 48 hrs by SRB assay; settings: TK-10, 48 h, read-out: Activity
EKVX = assay: Cytotoxicity against human EKVX cells assessed as cell growth at 0.5 uM after 48 hrs by SRB assay; settings: read-out: Activity
SK-MEL-28 = assay: Cytotoxicity against human SK-MEL-28 cells assessed as cell growth at 50 nM after 48 hrs by SRB assay; settings: SK-MEL-28, 48 h, read-out: Activity
HT-29 [29] = assay: Cytotoxicity against human HT-29 cells assessed as cell growth at 5 nM after 48 hrs by SRB assay; settings: HT-29, 48 h, read-out: Activity
[30] = Cytotoxicity against human HCC2998 cells assessed as cell growth at 50 uM after 48 hrs by SRB assay; settings: HCC 2998, 48 h, read-out: Activity
[31] = Cytotoxicity against human NCI-ADR-RES cells assessed as cell growth at 0.5 uM after 48 hrs by SRB assay; settings: read-out: Activity
NCI-H460 = assay: Cytotoxicity against human NCI-H460 cells assessed as cell growth at 0.5 uM after 48 hrs by SRB assay; settings: NCI-H460, 48 h, read-out: Activity
[32] = Cytotoxicity against human IGROV1 cells assessed as cell growth at 50 nM after 48 hrs by SRB assay; settings: IGROV-1, 48 h, read-out: Activity
[33] = Cytotoxicity against human UACC62 cells assessed as cell growth at 0.5 uM after 48 hrs by SRB assay; settings: UACC-62, 48 h, read-out: Activity
[34] = Cytotoxicity against human RXF393 cells assessed as cell growth at 50 nM after 48 hrs by SRB assay; settings: RXF 393, 48 h, read-out: Activity

Molecule `C/C(=C(/c1ccc(O)cc1)c1ccc(OCCN2CCCC2)cc1)c1ccccc1` has a growth at 0.01 µM (Malme-3M) of 99%, a growth at 100 µM [1] of -61% and a growth at 0.1 µM [2] of 93%. The growth at 0.1 µM (NCI-H226) was 95%, the growth at 0.1 µM [3] was 96% and the growth at 10 µM [4] was -40%. It also gave a growth at 1 µM [5] of 97%, a growth at 10 µM [6] of 19% and a growth at 100 µM [7] of -61%. For the same molecule, the growth at 100 µM [8] was -92%, the growth at 100 µM [9] was -79% and the growth at 0.1 µM [10] was 94%. The growth at 0.01 µM [11] was 92%, the growth at 100 µM [12] was -86% and the growth at 1 µM [13] was 90%. The growth at 0.01 µM [14] was 106%, the growth at 10 µM (NCI-H322M [15]) was 34% and the growth at 10 µM (T47D) was -5%. For the same molecule, the growth at 100 µM [16] was -98%.

In the case of `CCCCCCCCCC(=O)Oc1ccc(/C(=C(/C)c2ccccc2)c2ccc(OCCN3CCCC3)cc2)cc1`, the growth at 5 µM [17] is reported as 73%, the growth at 5 µM [18] is reported as 86% and the growth at 0.005 µM [19] is reported as 96%. It also gave a growth at 0.005 µM [20] of 95%, a growth at 0.5 µM [21] of 58% and a growth at 50 µM [22] of -100%. The growth at 0.5 µM [23] was 88%, the growth at 0.005 µM [24] was 102% and the growth at 0.05 µM (K562) was 95%. For the same molecule, the growth at 0.5 µM [25] was 83%, the growth at 0.5 µM (786-0) was 79% and the growth at 0.5 µM (NCI-H322M [26]) was 73%. It also gave a growth at 5 µM (HT-29 [27]) of 58%, a growth at 5 µM [28] of 95% and a growth at 0.5 µM (EKVX) of 78%. It also gave a growth at 0.05 µM (SK-MEL-28) of 100%, a growth at 0.005 µM (HT-29 [29]) of 101% and a growth at 50 µM [30] of -77%. The growth at 0.5 µM [31] was 73%, the growth at 0.5 µM (NCI-H460) was 78% and the growth at 0.05 µM [32] was 95%. For the same molecule, the growth at 0.5 µM [33] was 64% and the growth at 0.05 µM [34] was 100%.
